Experimental data as given in patent publication US10780074B2, “Compounds and uses thereof” (Sunovion Pharmaceuticals Inc., priority 2017, dated 2020).
Where a name gives a salt, the structure may show the parent alone. Read-outs that look alike come from different tables or passages of the source.

Tested on: behaviors of compound-treated mice
Assay: Neuropharmacological Assay (SmartCube)
Type: in vivo
Settings: for minimal effective dose: Mus musculus, ip, 0.25 h, dose having 50% or more total activity in SmartCube, read-out: MED (minimal effective dose)
Text: Neuropharmacological Assay (SmartCube™)
Neurosci. 2011 Sep. 9; 5:103 (doi: 10.3389/fnins.2011.00103) (“Roberds”). As reported in Roberds, because psychiatric diseases generally result from disorders of cell-cell communication or circuitry, intact systems are useful in detecting improvement in disease-relevant endpoints. These endpoints are typically behavioral in nature, often requiring human observation and interpretation. To facilitate testing of multiple compounds for behavioral effects relevant to psychiatric disease, PsychoGenics, Inc. (Tarrytown, N.Y., “PGI”) developed SmartCube™, an automated system in which behaviors of compound-treated mice are captured by digital video and analyzed with computer algorithms. (D. Brunner et al., Drug Discov. Today 2002, 7:S107-S112). PGI Analytical Systems uses data from SmartCube™ to compare the behavioral signature of a test compound to a database of behavioral signatures obtained using a large set of diverse reference compounds. (The composition of the database as well as validation of the method is further described in Roberds). In this way, the neuropharmacological effects of a test compound can be predicted by similarity to major classes of compounds, such as antipsychotics, anxiolytics and antidepressants.
The SmartCube™ system produces an activity signature indicating the probability that the activity of the test compound at the administered dose matches a given class of neuropharmacological agents. (See, e.g., Roberds, FIGS. 2 and 3). The test compound is simultaneously compared against multiple classes of agents; thus, a separate probability is generated for each behavioral effect measured (e.g., anxiolytic activity, analgesic activity, etc.). In the table below, these probabilities are reported for each behavioral effect measured as follows:
Provided compounds were dissolved in a mixture of Pharmasolve™ (N-methyl-2-pyrrolidone), polyethylene glycol and propylene glycol, and were injected i.p. 15 min. before the behavioral test. For each compound, injections were administered at 3 different doses. For each behavioral effect measured, results for the most efficacious dose(s) are presented. In the table below, DP: anti-depressant; AX: anxiolytic; SD: sedative hypnotic; PS: anti-psychotic; MS: mood stabilizer; AD: ADHD; CE: cognitive enhancer; AG: analgesic; UN: uncharacterized CNS activity.
The potency of many of the compounds in the table was also determined in the SmartCube™ system. Test compounds were routinely examined at dose levels of 0.3, 1, 3 10 and 30 mg per kg (mpk), although the dose range was increased or decreased if necessary to obtain a full dose response curve. A compound's minimal effective dose (MED) is a measure of the compounds potency. The MED was defined as the dose (in mpk) having 50% or more total activity in SmartCube.

[1] = i.p. 15 min before behavioral test, most efficacious dose(s) of 3 doses
[2] = SmartCube, i.p. 15 min before test, most efficacious dose(s)

SMILES	minimal effective dose (i.p.) [mg/kg]	AD: ADHD (probability that activity matches class) [1]	AG: analgesic (probability that activity matches class) [1]	AX: anxiolytic (probability that activity matches class) [1]	CE: cognitive enhancer (probability that activity matches class) [1]	DP: anti-depressant (probability that activity matches class) [1]	MS: mood stabilizer (probability that activity matches class) [1]	PS: anti-psychotic (probability that activity matches class) [1]	SD: sedative hypnotic (probability that activity matches class) [1]	UN: uncharacterized CNS activity (probability that activity matches class) [1]	minimal effective dose [mg/kg]	AD: ADHD (probability that activity matches class) [2]	AG: analgesic (probability that activity matches class) [2]	AX: anxiolytic (probability that activity matches class) [2]	CE: cognitive enhancer (probability that activity matches class) [2]	DP: anti-depressant (probability that activity matches class) [2]	MS: mood stabilizer (probability that activity matches class) [2]	PS: anti-psychotic (probability that activity matches class) [2]	SD: sedative hypnotic (probability that activity matches class) [2]	UN: uncharacterized CNS activity (probability that activity matches class) [2]
CCNCC1OCCc2c(-c3ccncc3)cccc21 (centres unmarked) [Compound 51, N-((5-(Pyridin-4-yl)isochroman-1-yl)methyl)ethanamine hydrochloride salt]	3 to 10	+ (LOQ ≤ + <5%)	+ (LOQ ≤ + <5%)	+ (LOQ ≤ + <5%)	+ (LOQ ≤ + <5%)	++++ (50% ≤ ++++)	+ (LOQ ≤ + <5%)	++ (5% ≤ ++ <25%)	++ (5% ≤ ++ <25%)	+ (LOQ ≤ + <5%)	–	–	–	–	–	–	–	–	–	–
CNC[C@@H]1OCCc2c(-c3cnccn3)cccc21 (single isomer, unassigned) [Compound 80]	3 to 10	+ (LOQ ≤ + <5%)	+ (LOQ ≤ + <5%)	++ (5% ≤ ++ <25%)	+ (LOQ ≤ + <5%)	+ (LOQ ≤ + <5%)	+ (LOQ ≤ + <5%)	+ (LOQ ≤ + <5%)	+ (LOQ ≤ + <5%)	+ (LOQ ≤ + <5%)	–	–	–	–	–	–	–	–	–	–
CNC[C@H]1OCCc2ccc(-c3cncnc3)cc21 (single isomer, unassigned) [Compound 25, hydrochloride]	10 to 30	+ (LOQ ≤ + <5%)	++ (5% ≤ ++ <25%)	++ (5% ≤ ++ <25%)	+++ (25% ≤ +++ <50%)	++ (5% ≤ ++ <25%)	++ (5% ≤ ++ <25%)	++ (5% ≤ ++ <25%)	++ (5% ≤ ++ <25%)	+ (LOQ ≤ + <5%)	–	–	–	–	–	–	–	–	–	–
CNC[C@@H]1OCCc2ccc(-c3ccncc3)cc21 [Compound 49, (R)—N-Methyl-1-(7-(pyridin-4-yl)isochroman-1-yl)methanamine hydrochloride]	≤ 3	+ (LOQ ≤ + <5%)	++ (5% ≤ ++ <25%)	++ (5% ≤ ++ <25%)	++ (5% ≤ ++ <25%)	++ (5% ≤ ++ <25%)	+ (LOQ ≤ + <5%)	++ (5% ≤ ++ <25%)	+ (LOQ ≤ + <5%)	++++ (50% ≤ ++++)	–	–	–	–	–	–	–	–	–	–
NC[C@H]1OCCc2c(-c3ccccc3)cccc21 (single isomer, unassigned) [Compound 131, hydrochloride salt]	≤ 3	+ (LOQ ≤ + <5%)	+ (LOQ ≤ + <5%)	++ (5% ≤ ++ <25%)	+ (LOQ ≤ + <5%)	++++ (50% ≤ ++++)	+ (LOQ ≤ + <5%)	+ (LOQ ≤ + <5%)	+ (LOQ ≤ + <5%)	++ (5% ≤ ++ <25%)	–	–	–	–	–	–	–	–	–	–
CNC[C@H]1OCCc2c(-c3ccccn3)cccc21 (single isomer, unassigned) [Compound 44, hydrochloride salt]	≤ 3	+ (LOQ ≤ + <5%)	++ (5% ≤ ++ <25%)	++ (5% ≤ ++ <25%)	+ (LOQ ≤ + <5%)	++++ (50% ≤ ++++)	+ (LOQ ≤ + <5%)	+ (LOQ ≤ + <5%)	+ (LOQ ≤ + <5%)	+ (LOQ ≤ + <5%)	–	–	–	–	–	–	–	–	–	–
CNC[C@H]1OCc2c(-c3cccnc3)cccc21 [Compound 34, (S)—N-Methyl-1-(4-(pyridin-3-yl)-1,3-dihydroisobenzofuran-1-yl)methanamine hydrochloride salt]	≤ 3	+ (LOQ ≤ + <5%)	+ (LOQ ≤ + <5%)	++ (5% ≤ ++ <25%)	+ (LOQ ≤ + <5%)	++++ (50% ≤ ++++)	++ (5% ≤ ++ <25%)	+ (LOQ ≤ + <5%)	+ (LOQ ≤ + <5%)	+ (LOQ ≤ + <5%)	–	–	–	–	–	–	–	–	–	–
c1cc(-c2ccncc2)c2c(c1)[C@@H](CNC1CC1)OCC2 (single isomer, unassigned) [Compound 181, hydrochloride salt]	–	–	–	–	–	–	–	–	–	–	≤ 3	++ (5% ≤ ++ <25%)	+ (LOQ ≤ + <5%)	+ (LOQ ≤ + <5%)	+ (LOQ ≤ + <5%)	++++ (50% ≤ ++++)	+ (LOQ ≤ + <5%)	+ (LOQ ≤ + <5%)	+ (LOQ ≤ + <5%)	++ (5% ≤ ++ <25%)
CNC[C@@H]1OCCc2c(-c3cocn3)cccc21 [Compound 102, (R)—N-methyl-1-(5-(oxazol-4-yl)isochroman-1-yl)methanamine HCl salt]	10 to 30	+ (LOQ ≤ + <5%)	+ (LOQ ≤ + <5%)	++ (5% ≤ ++ <25%)	+ (LOQ ≤ + <5%)	+ (LOQ ≤ + <5%)	+ (LOQ ≤ + <5%)	+ (LOQ ≤ + <5%)	+ (LOQ ≤ + <5%)	+ (LOQ ≤ + <5%)	–	–	–	–	–	–	–	–	–	–
NCC1OCCc2c(-c3cncs3)cccc21 (centres unmarked) [Compound 59, (5-(Thiazol-5-yl)isochroman-1-yl)methanamine hydrochloride salt]	≤ 3	++ (5% ≤ ++ <25%)	++ (5% ≤ ++ <25%)	++ (5% ≤ ++ <25%)	+ (LOQ ≤ + <5%)	++++ (50% ≤ ++++)	+ (LOQ ≤ + <5%)	+ (LOQ ≤ + <5%)	+++ (25% ≤ +++ <50%)	++ (5% ≤ ++ <25%)	–	–	–	–	–	–	–	–	–	–
NC[C@@H]1OCc2c(-c3ccccn3)cccc21 (single isomer, unassigned) [Compound 41]	10 to 30	+ (LOQ ≤ + <5%)	+ (LOQ ≤ + <5%)	++ (5% ≤ ++ <25%)	++ (5% ≤ ++ <25%)	++ (5% ≤ ++ <25%)	+ (LOQ ≤ + <5%)	+ (LOQ ≤ + <5%)	++ (5% ≤ ++ <25%)	++++ (50% ≤ ++++)	–	–	–	–	–	–	–	–	–	–
